“And” between values parts separate entries of the source, which are not always exact repeats. Equal entries are not always repeated. “Also recorded” adds a separate entry of the source. Where two headings read alike, the source gives them in different places.

Data set [1] addresses K+ current (IK), K channels (Doryteuthis opalescens, UniProt Q25376). In kind it is cell-based, squid Loligo opalescens.
The target in data set [2] is Na+ current (INa) (Doryteuthis opalescens, UniProt Q25377). The class given is cell-based, squid Loligo opalescens.
Chain of Na+ current (INa) (Q25377 1-1784): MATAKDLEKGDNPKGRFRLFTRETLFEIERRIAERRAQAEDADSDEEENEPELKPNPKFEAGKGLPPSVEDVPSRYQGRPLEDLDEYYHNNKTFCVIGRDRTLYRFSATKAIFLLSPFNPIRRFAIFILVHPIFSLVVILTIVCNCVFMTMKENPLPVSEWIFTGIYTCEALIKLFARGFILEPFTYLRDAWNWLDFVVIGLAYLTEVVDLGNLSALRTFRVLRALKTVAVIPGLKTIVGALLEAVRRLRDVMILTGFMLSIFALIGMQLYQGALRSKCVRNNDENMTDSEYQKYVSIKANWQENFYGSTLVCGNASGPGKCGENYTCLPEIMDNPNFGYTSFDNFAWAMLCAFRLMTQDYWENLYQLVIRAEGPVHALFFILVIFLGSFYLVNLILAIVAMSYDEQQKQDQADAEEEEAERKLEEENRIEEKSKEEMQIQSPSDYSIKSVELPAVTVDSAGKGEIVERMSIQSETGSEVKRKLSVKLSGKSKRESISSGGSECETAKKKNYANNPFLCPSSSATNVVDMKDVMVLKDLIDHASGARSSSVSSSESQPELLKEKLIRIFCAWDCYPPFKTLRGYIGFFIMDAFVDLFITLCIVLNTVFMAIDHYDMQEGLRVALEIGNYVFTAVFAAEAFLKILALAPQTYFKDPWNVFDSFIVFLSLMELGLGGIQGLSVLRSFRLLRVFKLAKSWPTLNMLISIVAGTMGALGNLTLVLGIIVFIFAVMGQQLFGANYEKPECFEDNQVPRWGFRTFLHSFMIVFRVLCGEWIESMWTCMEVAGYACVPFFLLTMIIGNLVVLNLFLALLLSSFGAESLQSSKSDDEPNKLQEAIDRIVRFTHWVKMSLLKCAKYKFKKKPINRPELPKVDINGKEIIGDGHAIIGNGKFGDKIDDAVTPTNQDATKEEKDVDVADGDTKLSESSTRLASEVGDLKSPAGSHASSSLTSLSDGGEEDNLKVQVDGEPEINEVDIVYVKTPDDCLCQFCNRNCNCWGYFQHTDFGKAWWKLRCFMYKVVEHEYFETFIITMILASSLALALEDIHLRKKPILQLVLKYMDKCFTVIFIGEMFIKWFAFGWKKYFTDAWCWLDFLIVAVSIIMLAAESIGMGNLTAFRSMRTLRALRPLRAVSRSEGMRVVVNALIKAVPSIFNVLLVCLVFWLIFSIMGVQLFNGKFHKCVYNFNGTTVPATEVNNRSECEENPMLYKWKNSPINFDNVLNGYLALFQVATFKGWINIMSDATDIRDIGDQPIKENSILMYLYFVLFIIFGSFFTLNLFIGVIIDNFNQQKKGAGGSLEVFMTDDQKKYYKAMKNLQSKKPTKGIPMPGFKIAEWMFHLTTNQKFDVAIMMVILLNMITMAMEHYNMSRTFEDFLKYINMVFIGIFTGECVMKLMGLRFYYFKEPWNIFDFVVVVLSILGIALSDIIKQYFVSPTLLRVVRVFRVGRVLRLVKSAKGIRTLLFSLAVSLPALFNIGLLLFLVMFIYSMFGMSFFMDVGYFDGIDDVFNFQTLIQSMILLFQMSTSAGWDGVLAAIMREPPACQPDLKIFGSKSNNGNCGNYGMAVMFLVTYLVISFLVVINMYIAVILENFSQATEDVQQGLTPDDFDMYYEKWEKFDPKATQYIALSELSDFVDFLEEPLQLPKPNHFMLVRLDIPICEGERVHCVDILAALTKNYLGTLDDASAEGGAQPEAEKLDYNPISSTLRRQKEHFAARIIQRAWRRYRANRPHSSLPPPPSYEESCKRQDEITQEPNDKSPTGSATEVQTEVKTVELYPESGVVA
The test system of data set [3] is Ca2+ current (ICa). The class given is cell-based, squid Loligo opalescens.
For data set [4] the following is noted: ref Kaufman et al., 1975; cited from earlier work.
Data set [5] in a line: pKa of methadone. The class given is physicochemical. The following applies: implied by pKa.
In data set [6] the test system is IK in GH3 cells. In kind it is cell-based, rat. Particulars: read-out: apparent KD for IK block.
Setting [7] is: Fig. 12 A: 100 μM, +60 mV, 10K//100K, model C.
[8] abbreviates: Fig. 4: 100 μM, +80 mV, 100K//200K.
Where [9] appears, read: Fig. 12 B: 10 °C, 100 μM, +60 mV, 10K//50K.
[10] abbreviates: Fig. 12 B: 20 °C, 100 μM, +60 mV, 10K//50K.

Chain of K+ current (IK), K channels (Q25376 1-488): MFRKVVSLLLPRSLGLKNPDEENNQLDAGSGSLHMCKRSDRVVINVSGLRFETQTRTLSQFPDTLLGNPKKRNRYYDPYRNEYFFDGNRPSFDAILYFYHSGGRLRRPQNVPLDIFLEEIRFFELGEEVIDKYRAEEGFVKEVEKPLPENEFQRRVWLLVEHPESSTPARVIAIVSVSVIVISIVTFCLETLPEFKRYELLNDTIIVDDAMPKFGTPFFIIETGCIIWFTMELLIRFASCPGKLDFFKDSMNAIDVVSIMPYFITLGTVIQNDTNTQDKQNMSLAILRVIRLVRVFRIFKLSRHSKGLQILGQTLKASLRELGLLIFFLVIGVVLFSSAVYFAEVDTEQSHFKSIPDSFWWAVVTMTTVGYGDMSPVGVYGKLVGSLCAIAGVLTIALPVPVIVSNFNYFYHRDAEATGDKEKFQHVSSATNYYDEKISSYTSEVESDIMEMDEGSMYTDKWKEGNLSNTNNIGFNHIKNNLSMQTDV

With `CCC(=O)C(C[C@H](C)N(C)C)(c1ccccc1)c1ccccc1` [(+)methadone], in data set [1] (setting [7]), the “rate of block (K)” value was 2.3 ms-1 mM-1 and the “rate of unblock (L)” value was found to be 0.142 ms-1.
In the case of `CN1CC[C@]23c4c5ccc(O)c4O[C@H]2[C@@H](O)C=C[C@H]3[C@H]1C5` [morphine], the “effect on IK” value in data set [1] (350 μM, +30 mV) was “no detectable effect”. Also, the “effect on INa” value in data set [2] (350 μM, data not shown) is given as “no detectable effect”. For the same compound, in data set [3] (350 μM, data not shown), the “effect on ICa” value is listed as “no detectable effect”.
The term pKa denotes the pH at which an ionisable group is half protonated. As for `CCC(=O)C(CC(C)N(C)C)(c1ccccc1)c1ccccc1` (centres unmarked) [methadone], the pKa in data set [4] is 9.64. Also, the “ICa block at small depolarizations” value in data set [3] (-10 and -20 mV, 200 and 500 μM methadone) is on record as “Little or no block”. Also, the “fraction of drug molecules charged at physiological pH” value in data set [5] is on record as greater than 99%.
With `CCC(=O)O[C@](Cc1ccccc1)(c1ccccc1)[C@H](C)CN(C)C` [propoxyphene], the Kd in data set [6] was 31 µM and ~30 µM.
For `C=CCN1CC[C@]23c4c5ccc(O)c4O[C@H]2C(=O)CC[C@@]3(O)[C@H]1C5` [naloxone], in data set [1] (data not shown), the “effect on the ability of methadone to block IK” value is reported as “did not prevent”.
For `CCC(=O)C(C[C@@H](C)N(C)C)(c1ccccc1)c1ccccc1` [(-)methadone], the “factor of increase of rate of block (K) from 10 to 20 °C” value in data set [1] is 2.1. Moreover, the “steady state IK as % of control” value in data set [1] (100 μM, 25-ms depolarization to +80 mV, 100K//200K) came out at 27%. Besides, the “rate of block (K)” value in data set [1] (setting [8]) is reported as 2.6 ms-1 mM-1; in data set [1] (setting [7]), 2.2 ms-1 mM-1; in data set [1] (setting [9]), 1.5 ms-1 mM-1; in data set [1] (setting [10]), 3.2 ms-1 mM-1. Also, the “rate of unblock (L)” value in data set [1] (setting [8]) stood at 0.096 ms-1; in data set [1] (setting [7]), 0.062 ms-1; in data set [1] (setting [9]) it was 0.060 ms-1; in data set [1] (setting [10]), 0.084 ms-1.
For the compound (±)methadone, the “use-dependent effect on peak INa” value in data set [2] (50 μM, repetitive depolarization to +10 mV at 4 Hz) is given as “no detectable effect”. In addition, in data set [2] (50 μM, repetitive depolarization to +70 mV, 5-ms pulses at 4 Hz, Hp -80 mV), the “use-dependent reduction in peak INa amplitude” value is reported as 20%.
Regarding `CCC(=O)C(CC(C)[N+](C)(C)C)(c1ccccc1)c1ccccc1.[I-]` (centres unmarked) [N-methyl-methadone], in data set [1] (1 mM external), the “effect on IK when applied externally” value is “without effect; also recorded: no effect”. Besides, in data set [1] (internally applied, data not shown), the “effect of changes in external pH on IK block” value is reported as “do not affect”. The “effect on INa when applied externally” value in data set [2] (1 mM external) was “no effect”. Besides, the “effect on ICa when applied externally” value in data set [3] (1 mM external) is recorded as “no effect”.
